Results reported in the supplement of paper PMC10307832.

Columns and labels:
Experiment in all cases: relative viability (nuclei count vs DMSO), 5 days (fraction); higher = more cells survive
[1] = compound: C1=CC2=NC=CN=C2C=C1/C=C/3\C(=O)NC(=O)S3 + Cc1cc(Nc2cc(N3CCN(C)CC3)nc(Sc3ccc(NC(=O)C4CC4)cc3)n2)n[nH]1 [Tozasertib] (partner 0.1 µM)
Method in brief: (§1)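 Lung cancer cell lines in 1536-well plates got either a single drug or a fixed anchor-drug dose together with five library-drug doses (not always all listed) in √10 steps, by pin tool, on the day after seeding. Nuclei were counted after 5 days, and relative viability is the treated-to-vehicle ratio of nuclei counts. Values are medians of duplicate plates.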

BGJ398 + Bortezomib = compound: CCN1CCN(c2ccc(Nc3cc(N(C)C(=O)Nc4c(Cl)c(OC)cc(OC)c4Cl)ncn3)cc2)CC1 [BGJ398] + CC(C)C[C@H](NC(=O)[C@H](Cc1ccccc1)NC(=O)c1cnccn1)B(O)O [Bortezomib] (partner 0.002 µM)
Method in brief: as §1

BGJ398 + Foretinib = compound: CCN1CCN(c2ccc(Nc3cc(N(C)C(=O)Nc4c(Cl)c(OC)cc(OC)c4Cl)ncn3)cc2)CC1 [BGJ398] + COc1cc2c(Oc3ccc(NC(=O)C4(C(=O)Nc5ccc(F)cc5)CC4)cc3F)ccnc2cc1OCCCN1CCOCC1 [Foretinib] (partner 0.25 µM)
Method in brief: as §1

BGJ398 + Linsitinib = compound: CCN1CCN(c2ccc(Nc3cc(N(C)C(=O)Nc4c(Cl)c(OC)cc(OC)c4Cl)ncn3)cc2)CC1 [BGJ398] + C[C@]1(O)C[C@@H](c2nc(-c3ccc4ccc(-c5ccccc5)nc4c3)c3c(N)nccn32)C1 [Linsitinib] (partner 1 µM)
Method in brief: as §1

| Cell Line | relative viability ([1]; first compound 0.02 µM) | relative viability ([1]; first compound 0.06325 µM) | relative viability ([1]; first compound 0.2 µM) | relative viability ([1]; first compound 0.6325 µM) | relative viability ([1]; first compound 2 µM) | relative viability (BGJ398 + Bortezomib; first compound 0.01 µM) | relative viability (BGJ398 + Bortezomib; first compound 0.03162 µM) | relative viability (BGJ398 + Bortezomib; first compound 0.1 µM) | relative viability (BGJ398 + Bortezomib; first compound 0.3162 µM) | relative viability (BGJ398 + Bortezomib; first compound 1 µM) | relative viability (BGJ398 + Foretinib; first compound 0.01 µM) | relative viability (BGJ398 + Foretinib; first compound 0.03162 µM) | relative viability (BGJ398 + Foretinib; first compound 0.1 µM) | relative viability (BGJ398 + Foretinib; first compound 0.3162 µM) | relative viability (BGJ398 + Foretinib; first compound 1 µM) | relative viability (BGJ398 + Linsitinib; first compound 0.01 µM) | relative viability (BGJ398 + Linsitinib; first compound 0.03162 µM) | relative viability (BGJ398 + Linsitinib; first compound 0.1 µM) | relative viability (BGJ398 + Linsitinib; first compound 0.3162 µM) | relative viability (BGJ398 + Linsitinib; first compound 1 µM) |
| --- | --- | --- | --- | --- | --- | --- | --- | --- | --- | --- | --- | --- | --- | --- | --- | --- | --- | --- | --- | --- |
| LC-2-ad | 0.444 | 0.353 | 0.46 | 0.406 | 0.449 | 0.968 | 1.12 | 1.07 | 1.01 | 1.09 | 1.05 | 0.839 | 1.02 | 0.963 | 0.99 | 0.827 | 0.88 | 0.817 | 0.87 | 0.843 |
| LCLC-97TM1 | 0.201 | 0.224 | 0.194 | 0.211 | 0.145 | 0.685 | 0.492 | 0.789 | 0.529 | 0.329 | 0.813 | 0.923 | 0.947 | 0.925 | 1.03 | 0.169 | 0.159 | 0.194 | 0.212 | 0.186 |
| LCLC-103H | 0.563 | 0.424 | 0.45 | 0.52 | 0.456 | 1.15 | 1.02 | 1.07 | 0.963 | 0.875 | 0.79 | 0.765 | 0.755 | 0.746 | 0.541 | 1.05 | 1.15 | 1.07 | 1.02 | 1.1 |
| LOU-NH91 | 0.619 | 0.739 | 0.634 | 0.63 | 0.588 | 0.483 | 0.498 | 0.547 | 0.54 | 0.472 | 0.943 | – | 0.975 | 0.563 | 0.951 | 0.903 | 0.539 | 0.933 | 0.557 | 0.911 |
| LU99A | 0.264 | 0.284 | 0.238 | 0.308 | 0.251 | 1.08 | 1.23 | 1.23 | 1.13 | 1.09 | 0.761 | 0.804 | 0.855 | 0.897 | 0.756 | 0.524 | 0.47 | 0.575 | 0.51 | 0.441 |
| LXF-289 | 0.186 | 0.147 | 0.185 | 0.185 | 0.168 | 0.951 | 0.918 | 0.918 | 0.888 | 0.896 | 0.901 | 0.901 | 0.881 | 0.873 | 0.871 | 0.944 | 0.886 | 0.883 | 0.84 | 0.899 |
| NCI-H23 | 0.337 | 0.314 | 0.363 | 0.401 | 0.329 | 0.946 | 1.05 | 1.19 | 1.2 | 1 | 1.01 | 1.08 | 1.17 | 1.06 | 0.881 | 0.582 | 0.597 | 0.564 | 0.568 | 0.48 |
| NCI-H322M | 0.523 | 0.466 | 0.482 | 0.461 | 0.425 | 1.14 | 0.989 | 1.21 | 1.21 | 1.24 | 1.03 | 0.896 | 1.07 | 0.966 | 0.958 | 0.863 | 0.788 | 0.978 | 0.935 | 0.999 |
| NCI-H441 | 0.661 | 0.828 | 0.743 | 0.62 | 0.366 | 0.398 | 0.991 | 0.861 | 0.4 | 0.472 | 0.997 | 0.902 | 0.893 | 0.998 | 1.11 | 0.526 | 0.569 | 0.7 | 0.486 | 0.484 |
| NCI-H460 | 0.411 | 0.262 | 0.441 | 0.392 | 0.395 | 1.17 | 1.23 | 1.45 | 1.04 | 1.06 | 0.999 | 0.994 | 1.08 | 1.06 | 1.04 | 0.714 | 0.838 | 0.916 | 0.895 | 0.92 |
| NCI-H520 | 0.394 | 0.378 | 0.451 | 0.416 | 0.458 | 0.538 | 0.54 | 0.259 | 0.201 | 0.162 | 0.777 | 0.7 | 0.316 | 0.25 | 0.236 | 0.934 | 0.922 | 0.735 | 0.435 | 0.367 |
| NCI-H596 | 0.934 | 0.951 | 1.1 | 0.733 | 0.902 | 0.988 | 0.72 | 0.96 | 1.04 | 0.769 | 0.903 | 0.804 | 0.773 | 0.944 | 0.779 | 0.864 | 1 | 1.12 | 0.957 | 0.942 |
| NCI-H647 | 0.398 | 0.258 | 0.423 | 0.268 | 0.357 | 0.986 | 1.12 | 1.24 | 0.864 | 0.793 | 1.09 | 1.12 | 1.12 | 1.39 | 1.27 | 1.06 | 1.29 | 1.26 | 1.17 | 1.08 |
| NCI-H650 | 0.777 | 0.725 | 0.705 | 0.749 | 0.55 | 0.777 | 0.909 | 0.845 | 0.837 | 0.627 | 0.983 | 1.06 | 1.06 | 1.04 | 0.928 | 0.822 | 1.01 | 0.959 | 0.875 | 0.909 |
| NCI-H661 | 0.389 | 0.368 | 0.352 | 0.335 | 0.374 | 0.7 | 0.905 | 0.799 | 0.767 | 1 | 0.889 | 1.06 | 1.14 | 0.932 | 0.982 | 0.531 | 0.77 | 0.644 | 0.678 | 0.548 |
| NCI-H727 | 0.676 | 0.703 | 0.736 | 0.569 | 0.545 | 0.899 | 0.822 | 0.796 | 0.882 | 0.774 | 1.12 | 0.773 | 0.822 | 0.848 | 0.927 | 0.345 | 0.281 | 0.286 | 0.291 | 0.301 |
